What was measured:
[1] = biological target: T1, KCNQ2/3 (KCNQ3 subunit) (Homo sapiens, UniProt O43525+O43526); assay: two-electrode voltage clamp in Xenopus oocytes, dose response at -70 mV; WL/WL and RA/RA mutants insensitive; format: cell-based
T1 construct: human KCNQ2/3 heteromeric channel expressed in Xenopus oocytes; with KCNQ2

[2] = biological target: T2, KCNQ1 (Homo sapiens, UniProt P51787); assay: two-electrode voltage clamp in Xenopus oocytes, […] quercetin; format: cell-based
T2 construct: homomeric human KCNQ1 expressed in Xenopus oocytes
T2 sequence (P51787 1-676): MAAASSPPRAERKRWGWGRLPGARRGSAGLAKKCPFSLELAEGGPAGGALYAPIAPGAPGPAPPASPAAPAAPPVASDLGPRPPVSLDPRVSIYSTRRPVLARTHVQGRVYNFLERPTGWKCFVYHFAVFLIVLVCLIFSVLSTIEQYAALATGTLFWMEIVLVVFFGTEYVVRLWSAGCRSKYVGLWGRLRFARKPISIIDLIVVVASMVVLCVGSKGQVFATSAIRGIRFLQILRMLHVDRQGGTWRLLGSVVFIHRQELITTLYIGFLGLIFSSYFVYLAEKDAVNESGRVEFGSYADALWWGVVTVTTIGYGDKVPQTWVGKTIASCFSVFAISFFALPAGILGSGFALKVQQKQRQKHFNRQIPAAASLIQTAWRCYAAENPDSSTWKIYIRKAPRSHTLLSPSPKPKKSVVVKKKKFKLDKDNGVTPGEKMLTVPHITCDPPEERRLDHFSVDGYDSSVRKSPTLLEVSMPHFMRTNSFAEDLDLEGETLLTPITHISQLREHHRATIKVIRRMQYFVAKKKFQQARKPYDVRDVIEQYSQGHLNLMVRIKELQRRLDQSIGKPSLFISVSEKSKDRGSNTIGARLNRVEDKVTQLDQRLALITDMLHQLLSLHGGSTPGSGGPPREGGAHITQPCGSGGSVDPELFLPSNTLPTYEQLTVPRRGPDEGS

T1 sequence (O43525 whole entry): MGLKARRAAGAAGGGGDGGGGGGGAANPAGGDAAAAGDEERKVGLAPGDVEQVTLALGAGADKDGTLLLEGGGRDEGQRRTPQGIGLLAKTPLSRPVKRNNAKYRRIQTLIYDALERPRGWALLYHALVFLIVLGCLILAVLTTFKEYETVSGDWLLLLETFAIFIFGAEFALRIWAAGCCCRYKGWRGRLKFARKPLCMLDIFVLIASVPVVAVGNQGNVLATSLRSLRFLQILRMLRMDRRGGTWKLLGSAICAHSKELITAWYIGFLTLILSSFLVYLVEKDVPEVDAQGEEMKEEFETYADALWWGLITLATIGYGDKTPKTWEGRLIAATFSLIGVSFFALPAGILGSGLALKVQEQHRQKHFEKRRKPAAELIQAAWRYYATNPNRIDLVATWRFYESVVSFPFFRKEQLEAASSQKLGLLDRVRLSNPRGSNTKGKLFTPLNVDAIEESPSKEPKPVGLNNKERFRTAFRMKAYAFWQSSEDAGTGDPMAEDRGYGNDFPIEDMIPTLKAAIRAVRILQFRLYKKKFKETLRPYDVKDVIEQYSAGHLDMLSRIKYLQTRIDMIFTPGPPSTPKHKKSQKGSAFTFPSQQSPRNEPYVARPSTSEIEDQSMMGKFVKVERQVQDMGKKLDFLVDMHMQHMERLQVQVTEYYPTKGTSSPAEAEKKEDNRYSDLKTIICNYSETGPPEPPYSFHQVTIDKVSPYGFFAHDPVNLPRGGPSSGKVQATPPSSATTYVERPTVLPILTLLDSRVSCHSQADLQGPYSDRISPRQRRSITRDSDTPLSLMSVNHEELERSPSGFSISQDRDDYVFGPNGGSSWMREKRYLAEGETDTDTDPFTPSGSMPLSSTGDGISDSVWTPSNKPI
T1 sequence (O43526 whole entry): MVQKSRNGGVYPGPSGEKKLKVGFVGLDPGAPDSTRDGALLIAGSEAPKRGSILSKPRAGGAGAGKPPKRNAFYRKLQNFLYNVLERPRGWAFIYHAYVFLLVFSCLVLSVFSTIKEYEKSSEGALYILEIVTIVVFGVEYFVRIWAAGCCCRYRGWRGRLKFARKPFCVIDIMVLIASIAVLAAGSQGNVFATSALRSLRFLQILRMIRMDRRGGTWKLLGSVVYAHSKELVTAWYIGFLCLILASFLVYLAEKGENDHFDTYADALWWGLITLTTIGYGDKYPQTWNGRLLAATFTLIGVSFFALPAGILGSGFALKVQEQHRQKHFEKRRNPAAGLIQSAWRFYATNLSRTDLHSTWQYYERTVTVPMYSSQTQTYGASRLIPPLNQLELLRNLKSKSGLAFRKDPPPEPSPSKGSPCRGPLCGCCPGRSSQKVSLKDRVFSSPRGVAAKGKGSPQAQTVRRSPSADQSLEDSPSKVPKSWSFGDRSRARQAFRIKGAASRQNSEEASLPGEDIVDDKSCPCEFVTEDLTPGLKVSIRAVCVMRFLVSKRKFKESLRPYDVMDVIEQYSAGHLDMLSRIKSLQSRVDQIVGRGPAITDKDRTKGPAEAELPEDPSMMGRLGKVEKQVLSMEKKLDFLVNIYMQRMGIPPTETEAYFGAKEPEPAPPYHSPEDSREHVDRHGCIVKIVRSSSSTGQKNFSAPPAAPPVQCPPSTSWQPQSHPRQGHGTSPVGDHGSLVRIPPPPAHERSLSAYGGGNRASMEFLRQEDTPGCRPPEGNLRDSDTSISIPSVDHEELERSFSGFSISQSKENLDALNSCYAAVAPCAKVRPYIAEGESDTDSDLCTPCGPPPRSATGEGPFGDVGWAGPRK

EC50 [1] [µM]	SMILES	two-electrode voltage clamp in Xenopus oocytes, 100 uM quercetin [2]
0.56 ± 0.003	O=C(O)c1cc(O)c(O)c(O)c1 [gallic acid]	–
–	O=c1c(O)c(-c2ccc(O)c(O)c2)oc2cc(O)cc(O)c12 [quercetin]	quercetin enhances both activation and inactivation of homomeric KCNQ1 channels, inducing visible voltage-dependent decay at depolarized potentials
